According to ChEMBL document CHEMBL5113500, “New brefeldin A-cinnamic acid ester derivatives as potential antitumor agents: Design, synthesis and biological evaluation” (Eur J Med Chem, 2022):
Calls of active or inactive are those of the source. The rule behind the calls is not given here.

Assays:
[1] = Volume of distribution at steady state in ICR mouse at 10 mg/kg, iv; format: ADME, organism-based; conditions: in vivo, read-out: Vdss
[2] = Toxicity in human HepG2 cells xenografted BALB/c nude mouse assessed as adverse effect at 5 to 10 mg/kg, ip administered once daily for 16 days; format: organism-based; conditions: in vivo, 384 h, dose 5-10 mg/kg, time 16 day
Bel-7402 [3] = assay: Cell cycle arrest in human Bel-7402 cells assessed as accumulation at G1 phase at 0.5 uM measured after 24 hrs by propidium iodide staining based flow cytometry (reference value: 38.72%); format: functional
HepG2 [4] = assay: Induction of apoptosis in human HepG2 cells assessed as necrotic cells at 0.2 uM measured after 48 hrs by Annexin V-FITC/propidium iodide staining based flow cytometry (reference value: 2.04%); format: functional
[5] = Selectivity index, ratio of IC50 for human L02 cells to IC50 for human HepG2 cells; format: toxicity; conditions: L02 cells and HepG2 cells, read-out: Ratio IC50
HepG2 [6] = assay: Cell cycle arrest in human HepG2 cells assessed as accumulation at S phase at 0.4 uM measured after 24 hrs by propidium iodide staining based flow cytometry (reference value: 32.81%); format: functional
HepG2 [7] = assay: Antitumor activity against human HepG2 cells xenografted in BALB/c nude mouse assessed as reduction in Ki-67 expression at 5 to 10 mg/kg, ip administered once daily for 16 days measured post-last dose by immunohistochemical analysis; format: functional, organism-based; conditions: dose 5-10 mg/kg, time 16.0 day
[8] = target: ADP-ribosylation factor 1 (Homo sapiens) (UniProt P84077); assay: Binding affinity to Arf1 in human HepG2 cell lysate assessed as change in denaturation temperature at 25 uM measured after 3 mins by CETSA; format: subcellular
Chain of ADP-ribosylation factor 1 (Homo sapiens) (P84077 whole entry): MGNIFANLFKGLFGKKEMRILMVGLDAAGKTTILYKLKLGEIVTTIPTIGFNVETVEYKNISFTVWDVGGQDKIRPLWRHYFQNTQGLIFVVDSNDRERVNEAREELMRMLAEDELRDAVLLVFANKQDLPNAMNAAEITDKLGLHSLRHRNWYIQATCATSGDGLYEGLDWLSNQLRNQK

HepG2 [9] = assay: Inhibition of colony formation in human HepG2 cells assessed as reduction in colony size at 0.2 to 0.8 uM treated every 3 days for 14 days by crystal violet staining based microscopy; format: functional, cell-based; conditions: dose 0.2-0.8 µM, time 14.0 day
HepG2 [10] = assay: Cell cycle arrest in human HepG2 cells assessed as accumulation at G1 phase at 0.2 uM measured after 24 hrs by propidium iodide staining based flow cytometry (reference value: 42.27%); format: functional
[11] = Acute toxicity in ICR mouse assessed as change in urea level at 100 mg/kg, ip measured after 6 days; format: organism-based; conditions: in vivo, 144 h, time 6 day
HepG2 [12] = assay: Induction of apoptosis in human HepG2 cells assessed as viable cells at 0.2 uM measured after 48 hrs by Annexin V-FITC/propidium iodide staining based flow cytometry (reference value: 94.5%); format: functional; conditions: read-out: Activity
HepG2 [13] = assay: Cell cycle arrest in human HepG2 cells assessed as accumulation at G2/M phase at 0.2 uM measured after 24 hrs by propidium iodide staining based flow cytometry (reference value: 19.93%); format: functional
Bel-7402 [14] = assay: Cell cycle arrest in human Bel-7402 cells assessed as accumulation at G1 phase at 2 uM measured after 24 hrs by propidium iodide staining based flow cytometry (reference value: 38.72%); format: functional
Bel-7402 [15] = assay: Cell cycle arrest in human Bel-7402 cells assessed as accumulation at S phase at 0.5 uM measured after 24 hrs by propidium iodide staining based flow cytometry (reference value: 31%); format: functional
[16] = Cmax in ICR mouse at 10 mg/kg, iv; format: ADME, organism-based; set-up: dose 10 mg/kg, route iv; conditions: in vivo
[17] = Acute toxicity in ICR mouse assessed as pathological change in spleen at 100 mg/kg, ip measured after 6 days; format: organism-based; conditions: in vivo, 144 h, time 6 day
HepG2 [18] = assay: Induction of apoptosis in human HepG2 cells measured after 48 hrs by Annexin V-FITC/propidium iodide staining based flow cytometry; format: functional, cell-based; conditions: dose 0.2-0.8 µM, DDE = dose-dependent effect
[19] = MRT (0 to t) in ICR mouse at 10 mg/kg, iv; format: ADME, organism-based; conditions: in vivo
HepG2 [20] = assay: Induction of apoptosis in human HepG2 cells assessed as late apoptotic cells at 0.4 uM measured after 48 hrs by Annexin V-FITC/propidium iodide staining based flow cytometry (reference value: 1.66%); format: functional
[21] = Acute toxicity in ICR mouse assessed as change in ALT level at 100 mg/kg, ip measured after 6 days; format: organism-based; conditions: in vivo, 144 h, time 6 day
Bel-7402 [22] = assay: Cell cycle arrest in human Bel-7402 cells assessed as accumulation at G2/M phase at 0.5 uM measured after 24 hrs by propidium iodide staining based flow cytometry (reference value: 30.29%); format: functional
HepG2 [23] = assay: Induction of apoptosis in human HepG2 cells assessed as late apoptotic cells at 0.2 uM measured after 48 hrs by Annexin V-FITC/propidium iodide staining based flow cytometry (reference value: 1.66%); format: functional
ECa-109 cell line = assay: Antiproliferative activity against human Eca-109 cells measured after 72 hrs by MTT assay; format: functional, cell-based; conditions: ECa-109, 72 h
Bel-7402 [24] = assay: Cell cycle arrest in human Bel-7402 cells assessed as accumulation at S phase at 1 uM measured after 24 hrs by propidium iodide staining based flow cytometry (reference value: 31%); format: functional
HepG2 [25] = assay: Induction of apoptosis in human HepG2 cells assessed as chromatin shrinkage at 0.2 to 0.8 uM measured after 48 hrs by Hoechst 33342 staining based fluorescence microscopy; format: functional, cell-based; conditions: dose 0.2-0.8 µM
HepG2 [26] = assay: Induction of apoptosis in human HepG2 cells assessed as viable cells at 0.8 uM measured after 48 hrs by Annexin V-FITC/propidium iodide staining based flow cytometry (reference value: 94.5%); format: functional; conditions: read-out: Activity
[27] = Acute toxicity in ICR mouse assessed as pathological change in lung at 100 mg/kg, ip measured after 6 days; format: organism-based; conditions: in vivo, 144 h, time 6 day
HepG2 [28] = assay: Cell cycle arrest in human HepG2 cells assessed as accumulation at G1 phase at 0.8 uM measured after 24 hrs by propidium iodide staining based flow cytometry (reference value: 42.27%); format: functional
HepG2 [29] = assay: Antitumor activity against human HepG2 cells xenografted in BALB/c nude mouse assessed as reduction in tumor weight at 5 to 10 mg/kg, ip administered once daily for 16 days measured post-last dose; format: functional, organism-based; conditions: dose 5-10 mg/kg, time 16.0 day
HepG2 [30] = assay: Induction of apoptosis in human HepG2 cells assessed as early apoptotic cells at 0.8 uM measured after 48 hrs by Annexin V-FITC/propidium iodide staining based flow cytometry (reference value: 1.81%); format: functional
HeLa = assay: Antiproliferative activity against human HeLa cells measured after 72 hrs by MTT assay; format: functional, cell-based
HepG2 [31] = assay: Cell cycle arrest in human HepG2 cells assessed as accumulation at S phase at 0.8 uM measured after 24 hrs by propidium iodide staining based flow cytometry (reference value: 32.81%); format: functional
HepG2 [32] = assay: Cell cycle arrest in human HepG2 cells assessed as accumulation at G1 phase at 0.4 uM measured after 24 hrs by propidium iodide staining based flow cytometry (reference value: 42.27%); format: functional
HepG2 [33] = assay: Antiproliferative activity against human HepG2 cells measured after 72 hrs by MTT assay; format: functional, cell-based; conditions: HepG2, 72 h
[34] = Acute toxicity in ICR mouse assessed as pathological change in heart at 100 mg/kg, ip measured after 6 days; format: organism-based; conditions: in vivo, 144 h, time 6 day
HepG2 [35] = assay: Induction of apoptosis in human HepG2 cells assessed as early apoptotic cells at 0.4 uM measured after 48 hrs by Annexin V-FITC/propidium iodide staining based flow cytometry (reference value: 1.81%); format: functional

For `C[C@H]1CCC/C=C/[C@@H]2C[C@H](O)C[C@H]2[C@H](OC(=O)/C=C/c2ccc(N(C)C)cc2)/C=C/C(=O)O1`, which Vd [1] is on record?
The Vd was 0.852 L/kg.

What about the Activity [2] of the same compound?
Its Activity is “Non-Toxic”.

What about the Activity (Bel-7402 [3]) of the same compound?
The Activity was 51.26%.

And the Activity (HepG2 [4])?
Its Activity is 28.85%.

What about the selectivity ratio [5] of the same compound?
The selectivity ratio was 9.69.

What about the Activity (HepG2 [6]) of the same compound?
The Activity was 21.37%.

What about the Activity (HepG2 [7]) of the same compound?
Its Activity is “Active”.

What about the Activity [8] of the same compound?
Its Activity is “Active”.

And the inhibition (HepG2 [9])?
The inhibition was “Active”.

And the Activity (HepG2 [10])?
Its Activity is 48.26%.

And the Activity [11]?
Its Activity is “Non-Toxic”.

And the viability at 0.2 µM (HepG2 [12])?
Its viability at 0.2 µM is 66.1%.

And the Activity (HepG2 [13])?
Its Activity is 22.32%.

What about the Activity (Bel-7402 [14]) of the same compound?
Its Activity is 60.5%.

What about the Activity (Bel-7402 [15]) of the same compound?
Its Activity is 21.14%.

What about the Cmax [16] of the same compound?
The Cmax was 14400 ng/mL.

What about the Activity [17] of the same compound?
Its Activity is “Non-Toxic”.

And the Activity (HepG2 [18])?
The Activity was “Dde”.

What about the MRT last [19] of the same compound?
Its MRT last is 19.2 min.

What about the Activity (HepG2 [20]) of the same compound?
Its Activity is 3.9%.

What about the Activity [21] of the same compound?
The Activity was “Non-Toxic”.

What about the Activity (Bel-7402 [22]) of the same compound?
The Activity was 27.62%.

And the Activity (HepG2 [23])?
Its Activity is 3.05%.

What about the IC50 (ECa-109 cell line) of the same compound?
Its IC50 is 1770 nM.

And the Activity (Bel-7402 [24])?
The Activity was 19.59%.

What about the Activity (HepG2 [25]) of the same compound?
Its Activity is “Active”.

What about the viability at 0.8 µM (HepG2 [26]) of the same compound?
The viability at 0.8 µM was 54.4%.

And the Activity [27]?
Its Activity is “Non-Toxic”.

What about the Activity (HepG2 [28]) of the same compound?
The Activity was 60.9%.

And the Activity (HepG2 [29])?
The Activity was “Active”.

What about the Activity (HepG2 [30]) of the same compound?
Its Activity is 1.49%.

And the IC50 (HeLa)?
Its IC50 is 860 nM.

What about the Activity (HepG2 [31]) of the same compound?
The Activity was 23.25%.

What about the Activity (HepG2 [32]) of the same compound?
Its Activity is 57.76%.

What about the IC50 (HepG2 [33]) of the same compound?
The IC50 was 290 nM.

What about the Activity [34] of the same compound?
The Activity was “Non-Toxic”.

And the Activity (HepG2 [35])?
The Activity was 1.45%.
